In patent US20130337052A1, “System and Method of Reducing Impairment of Alertness, Concentration, Motivation, and Creativity Caused by Medication” (priority 2012, published 2013):

Columns and labels:
CB1 receptors = CB1 receptors (Homo sapiens, UniProt P21554); details: relative to THC; cited from earlier work
CB2 receptors = CB2 receptors (Homo sapiens, UniProt P34972); details: relative to THC; cited from earlier work
[1] = Side effects reported by patients using a medication containing THC; format: in vivo, human; details: e.g. Marinol
Text: Patients using cannabinoid medications 10 prescribed for the treatment of symptoms such as pain and experiencing the undesirable side effects of the cannabinoid medications may provide relief through the administration of lithium compounds 30. […] Patients also reported a lack of motivation and a reduction in creativity while taking the medication. As a result, the patients have been unable or unwilling to perform ordinary tasks, such as, e.g., tasks associated with the patient's employment. However, upon treatment with lithium compounds 30, the alertness, concentration, motivation, and creativity of the patients were restored. As a result, the patients were able to continue to work productively while using the cannabinoid-based medication.

[2] = patients received up to 210 milligrams per day; cited from earlier work
[3] = lithium citrate syrup compared to lithium carbonate tablets; cited from earlier work
[4] = 150 milligrams per day; cited from earlier work

Sequence of CB1 receptors (P21554 whole entry): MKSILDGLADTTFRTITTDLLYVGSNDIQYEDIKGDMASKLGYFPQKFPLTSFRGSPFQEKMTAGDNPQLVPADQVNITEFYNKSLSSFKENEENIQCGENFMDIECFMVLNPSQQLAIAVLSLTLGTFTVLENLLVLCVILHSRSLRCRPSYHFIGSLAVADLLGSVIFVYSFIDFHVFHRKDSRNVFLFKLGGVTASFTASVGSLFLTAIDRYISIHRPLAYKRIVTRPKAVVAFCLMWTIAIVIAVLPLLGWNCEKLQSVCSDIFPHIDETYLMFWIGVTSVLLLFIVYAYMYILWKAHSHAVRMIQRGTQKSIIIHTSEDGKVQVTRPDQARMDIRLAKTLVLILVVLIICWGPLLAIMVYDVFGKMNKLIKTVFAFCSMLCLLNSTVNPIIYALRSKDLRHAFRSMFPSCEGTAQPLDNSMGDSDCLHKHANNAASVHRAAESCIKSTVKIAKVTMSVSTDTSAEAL
Sequence of CB2 receptors (P34972 whole entry): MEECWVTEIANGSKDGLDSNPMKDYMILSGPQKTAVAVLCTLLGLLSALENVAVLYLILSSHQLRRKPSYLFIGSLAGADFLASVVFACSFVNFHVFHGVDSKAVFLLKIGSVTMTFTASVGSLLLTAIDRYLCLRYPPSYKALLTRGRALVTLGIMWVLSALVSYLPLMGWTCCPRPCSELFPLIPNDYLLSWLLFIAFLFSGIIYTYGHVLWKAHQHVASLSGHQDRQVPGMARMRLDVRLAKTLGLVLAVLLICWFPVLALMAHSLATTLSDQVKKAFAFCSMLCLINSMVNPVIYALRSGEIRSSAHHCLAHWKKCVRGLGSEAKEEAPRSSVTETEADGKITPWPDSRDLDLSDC

**Q.** Which results are given for `CCCCCc1cc(O)c2c(c1)OC(C)(C)c1ccc(C)cc1-2` [CBN, cannabinol]?
**A.** agonist effect on the CB1 receptor compared with THC (CB1 receptors): weaker agonist effect; agonist effect on the CB2 receptor compared with THC (CB2 receptors): weaker agonist effect

**Q.** Which “side effects experienced by patients” value [1] does the source give for `CCCCCc1cc(O)c2c(c1)OC(C)(C)[C@@H]1CCC(C)=C[C@@H]21` [THC, (−)-trans-Δ9-tetrahydrocannabinol] here?
**A.** difficulty staying awake and maintaining concentration

**Q.** And the “toxic effects in clinical studies” value [2]?
**A.** without toxic effects

**Q.** Which “rate at which lithium enters the body” value [3] does the source give for `O=C([O-])CC(O)(CC(=O)[O-])C(=O)[O-].[Li+].[Li+].[Li+]` [lithium citrate] here?
**A.** more rapidly

**Q.** Which “effect in the treatment of alcohol addiction” value [4] does the source give for `O=C([O-])c1cc(=O)[nH]c(=O)[nH]1.[Li+]` [lithium orotate] here?
**A.** beneficial
